≈ marks a conversion by molar mass, not a printed value.

In test [1] the test system is Staphylococcus aureus. The test is described as follows: Growth inhibition of Staphylococcus aureus ATCC 29213 at 860 uM after 16 hrs by broth microdilution method. It is filed as functional. The note with it: ATCC 29213, 16 h, read-out: GI.
The subject of test [2] is Staphylococcus aureus. The test is described as follows: Growth inhibition of Staphylococcus aureus ATCC 29213 at 1230 uM after 16 hrs by broth microdilution method. Format: functional. The following applies: ATCC 29213, 16 h, read-out: GI.
For test [3], the system named is Staphylococcus aureus. The test is described as follows: Growth inhibition of Staphylococcus aureus ATCC 29213 at 1000 uM after 16 hrs by broth microdilution method. It is filed as functional. The following applies: ATCC 29213, 16 h, read-out: GI.
In test [4] the test system is Staphylococcus aureus. The test is described as follows: Growth inhibition of Staphylococcus aureus ATCC 29213 at 820 uM after 16 hrs by broth microdilution method. It is filed as functional. The note with it: ATCC 29213, 16 h, read-out: GI.
Test [5] deals with Staphylococcus aureus. The test is described as follows: Growth inhibition of Staphylococcus aureus ATCC 29213 at 1540 uM after 16 hrs by broth microdilution method. It is filed as functional. The following applies: ATCC 29213, 16 h, read-out: GI.
Test [6] addresses T1, Type III pantothenate kinase (Bacillus anthracis, UniProt Q81VX4).
T1 sequence (Q81VX4 whole entry): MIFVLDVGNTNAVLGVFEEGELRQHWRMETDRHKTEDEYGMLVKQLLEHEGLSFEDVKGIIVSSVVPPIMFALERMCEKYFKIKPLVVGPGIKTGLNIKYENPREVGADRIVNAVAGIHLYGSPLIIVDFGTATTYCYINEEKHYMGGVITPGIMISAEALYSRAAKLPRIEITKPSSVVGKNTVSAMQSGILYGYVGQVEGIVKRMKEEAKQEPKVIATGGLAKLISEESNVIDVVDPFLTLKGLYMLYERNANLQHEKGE
The test is described as follows: Inhibition of Bacillus anthracis pantothenate kinase 3.

For test [7], the system named is Staphylococcus aureus. The test is described as follows: Growth inhibition of Staphylococcus aureus ATCC 29213 at 550 uM after 16 hrs by broth microdilution method. It is filed as functional. The following applies: ATCC 29213, 16 h, read-out: GI.
Test [8] concerns Staphylococcus aureus. The experiment in a line: Antibacterial activity against Staphylococcus aureus ATCC 29213 after 16 hrs by broth microdilution method. Format: functional. The following applies: ATCC 29213, 16 h.

Take `CCCCCn1cc(CNC(=O)[C@H](O)C(C)(C)CO)nn1`: in the test with Staphylococcus aureus [1], the inhibition of growth at 860 µM is -5%.

As to `CCCc1cn(CCCNC(=O)[C@H](O)C(C)(C)CO)nn1`, the inhibition of growth at 860 µM in the test with Staphylococcus aureus [1] was -13%. As to `O=C(O)CCNC(=O)[C@H](O)CCO`, in the test with Staphylococcus aureus [2], the inhibition of growth at 1230 µM was determined as 9%.

Take `COC(=O)CNC(=O)[C@H](O)C(C)(C)CO`: the inhibition of growth at 1000 µM with Staphylococcus aureus [3] came out at 84%.

As to `CCCCCc1cn(CCNC(=O)[C@H](O)C(C)(C)CO)nn1`, the inhibition of growth at 820 µM in the test on Staphylococcus aureus [4] is 72%. Turning to `COC(=O)CCCNC(=O)[C@H](O)C(C)(C)CO`, the inhibition of growth at 1000 µM with Staphylococcus aureus [3] is 16%. As for `COC(=O)CCNC(=O)[C@H](O)C(C)(C)CO`, the inhibition of growth at 1000 µM in the test on Staphylococcus aureus [3] is 15%. `CC(C)(CO)[C@@H](O)C(=O)NCc1cn(CCc2ccccc2)nn1`: the inhibition of growth at 1540 µM in the test with Staphylococcus aureus [5] stood at 2%. On to `CC(C)(CO)[C@@H](O)C(=O)NCC(=O)O`, for which the inhibition of growth at 1000 µM with Staphylococcus aureus [3] came to 18%. Take `CCCCCn1cc(CCNC(=O)[C@H](O)C(C)(C)CO)nn1`: the inhibition of growth at 860 µM in the test on Staphylococcus aureus [1] came to 99%.

Turning to `Nc1ncnc2c1ncn2[C@@H]1O[C@H](Cn2cc(CO[C@@H]3O[C@H](CO)[C@H](O)[C@H](O)[C@H]3O)nn2)[C@@H](O)[C@H]1O`, the inhibitory constant (Ki) in test [6] is 164 µM. For `CCCCn1cc(CCNC(=O)[C@H](O)C(C)(C)CO)nn1`, the inhibition of growth at 550 µM in the test with Staphylococcus aureus [7] came to 86%. `CCCCCNC(=O)CCNC(=O)[C@H](O)C(C)(C)CO` registered an MIC with Staphylococcus aureus [8] of 14 µM (≈ 4.04 µg/mL). As for `CC(C)(CO)[C@@H](O)C(=O)NCCCC(=O)O` [HOPANTENIC ACID], the inhibition of growth at 1000 µM in the test on Staphylococcus aureus [3] was 87%.

These data come from ChEMBL document CHEMBL4261651, “Probing the ligand preferences of the three types of bacterial pantothenate kinase” (Bioorg Med Chem, 2018).
